For 29 compounds, IC50 results are on record in patent US11820766B2, “Monoacylglycerol lipase modulators” (Janssen Pharmaceutica NV, priority 2018, dated 2023).

One assay deals with T1, human MGL from HeLa cells (Homo sapiens, UniProt Q99685).
T1 construct: combining endogenously expressed MGL from HeLa cells with test compounds; endogenous in cells; host or cells: HeLa cells / cell homogenates
T1 sequence (Q99685 1-303): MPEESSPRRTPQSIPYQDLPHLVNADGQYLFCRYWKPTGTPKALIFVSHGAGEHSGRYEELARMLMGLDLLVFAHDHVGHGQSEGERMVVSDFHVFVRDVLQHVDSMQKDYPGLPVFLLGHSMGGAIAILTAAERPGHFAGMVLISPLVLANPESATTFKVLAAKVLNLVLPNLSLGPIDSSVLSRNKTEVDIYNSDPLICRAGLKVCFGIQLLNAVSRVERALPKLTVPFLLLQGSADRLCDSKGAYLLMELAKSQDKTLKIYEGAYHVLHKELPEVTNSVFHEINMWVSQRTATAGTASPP
The assay can be described thus: In vitro MGL activity assay: [glycerol-1,3-3H]-oleyl glycerol cleavage by MGL from HeLa cells. The format is biochemical. The settings on record: 300 nM [Glycerol-1,3-3H]-oleyl glycerol, one hour. The source says:
MGL is the predominant hydrolase in HeLa cells/cell homogenates.
Consider `C[C@H]1c2nn(C)c(-c3cccc4nonc34)c2CCN1C(=O)c1ccc2ncccc2c1` [Example 538, [(7S)-3-(2,1,3-Benzoxadiazol-4-yl)-2,7-dimethyl-5,7-dihydro-4H-pyrazolo[3,4-c]pyridin-6-yl]-(6-quinolyl)methanone], for which the IC50 stood at 72.6 nM.
On the same count and under the same terms, the value for `C[C@H]1c2nn(C)c(-c3cc(F)c(F)c(F)c3)c2CCN1C(=O)c1ccc(F)c2[nH]ccc12` [Example 354, [(7S)-2,7-Dimethyl-3-(3,4,5-trifluorophenyl)-5,7-dihydro-4H-pyrazolo[3,4-c]pyridin-6-yl]-(7-fluoro-1H-indol-4-yl)methanone] was 2.23 nM.
The same measure, in the same setting: the value for `C[C@H]1c2nn(C)c(-c3cc(F)c(F)c(F)c3)c2CCN1C(=O)c1ccc2cncnc2c1` [Example 480, [(7S)-2,7-Dimethyl-3-(3,4,5-trifluorophenyl)-5,7-dihydro-4H-pyrazolo[3,4-c]pyridin-6-yl]-quinazolin-7-yl-methanone] was 207 nM; that for `C[C@H]1c2nn(C)c(-c3cc(F)c(F)c(F)c3)c2CCN1C(=O)c1cnc2c(c1)OCCO2` [Example 570, 2,3-Dihydro-[1,4]dioxino[2,3-b]pyridin-7-yl-[(7S)-2,7-dimethyl-3-(3,4,5-trifluorophenyl)-5,7-dihydro-4H-pyrazolo[3,4-c]pyridin-6-yl]methanone] was 136 nM; that for `Cc1ccn2ncc(C(=O)N3CCc4c(nn(C)c4-c4cc(F)c(F)c(F)c4)[C@@H]3C)c2c1` [Example 383, [(7S)-2,7-Dimethyl-3-(3,4,5-trifluorophenyl)-5,7-dihydro-4H-pyrazolo[3,4-c]pyridin-6-yl]-(5-methylpyrazolo[1,5-a]pyridin-3-yl)methanone] was 6.39 nM.
On the same count and under the same terms, with `COc1ccn2ncc(C(=O)N3CCc4c(nn(C)c4-c4cc(F)c(F)c(F)c4)[C@@H]3C)c2c1` [Example 389, [(7S)-2,7-Dimethyl-3-(3,4,5-trifluorophenyl)-5,7-dihydro-4H-pyrazolo[3,4-c]pyridin-6-yl]-(5-methoxypyrazolo[1,5-a]pyridin-3-yl)methanone] the figure was 9.94 nM.
Regarding `C[C@H]1c2nn(C)c(-c3ccc(C(F)F)nc3)c2CCN1C(=O)c1ccc2ncccc2c1` [Example 521, [(7S)-3-[6-(Difluoromethyl)-3-pyridyl]-2,7-dimethyl-5,7-dihydro-4H-pyrazolo[3,4-c]pyridin-6-yl]-(6-quinolyl)methanone], 766 nM corresponded to half-maximal inhibition (IC50).
On the same count and under the same terms, with `C[C@H]1c2nn(C)c(-c3cc(F)c(F)c(F)c3)c2CCN1C(=O)c1cccc2c1CCNC2` [Example 574, [(7S)-2,7-Dimethyl-3-(3,4,5-trifluorophenyl)-5,7-dihydro-4H-pyrazolo[3,4-c]pyridin-6-yl]-(1,2,3,4-tetrahydroisoquinolin-5-yl)methanone] the figure was 330 nM.
Turning to `C[C@H]1c2nn(C)c(-c3cc(F)c(F)c(F)c3)c2CCN1C(=O)c1cnn(C)c1C1CCC1` [Example 333, (5-Cyclobutyl-1-methyl-pyrazol-4-yl)-[(7S)-2,7-dimethyl-3-(3,4,5-trifluorophenyl)-5,7-dihydro-4H-pyrazolo[3,4-c]pyridin-6-yl]methanone], the IC50 was determined as 25.4 nM.
Same read-out and setting: the value for `Cc1cn(C)c2ncnc(C(=O)N3CCc4c(nn(C)c4-c4cc(F)c(F)c(F)c4)[C@@H]3C)c12` [Example 467, (5,7-Dimethylpyrrolo[2,3-d]pyrimidin-4-yl)-[(7S)-2,7-dimethyl-3-(3,4,5-trifluorophenyl)-5,7-dihydro-4H-pyrazolo[3,4-c]pyridin-6-yl] methanone] was 36.1 nM; that for `C[C@H]1c2nn(C)c(-c3cc(F)c(F)c(F)c3)c2CCN1C(=O)c1ccc2c(c1)CCCO2` [Example 580, Chroman-6-yl-[(7S)-2,7-dimethyl-3-(3,4,5-trifluorophenyl)-5,7-dihydro-4H-pyrazolo[3,4-c]pyridin-6-yl]methanone] was 19.6 nM; that for `Cc1nn(C)c2nccc(C(=O)N3CCc4c(nn(C)c4-c4cc(F)c(F)c(F)c4)[C@@H]3C)c12` [Example 425, (1,3-Dimethylpyrazolo[3,4-b]pyridin-4-yl)-[(7S)-2,7-dimethyl-3-(3,4,5-trifluorophenyl)-5,7-dihydro-4H-pyrazolo[3,4-c]pyridin-6-yl]methanone] was 68.1 nM.
For `C[C@H]1c2nn(C)c(-c3cc(F)c(F)c(F)c3)c2CCN1C(=O)c1n[nH]c2cccnc12` [Example 436, [(7S)-2,7-Dimethyl-3-(3,4,5-trifluorophenyl)-5,7-dihydro-4H-pyrazolo[3,4-c]pyridin-6-yl]-(1H-pyrazolo[4,3-b]pyridin-3-yl)methanone], the concentration for half-maximal inhibition (IC50) was found to be 175 nM.

Staying with this assay, now noted: 300 nM [Glycerol-1,3-3H]-oleyl glycerol, one hour incubation.
Turning to `Cn1nc2c(c1-c1ccccc1)CCN(C(=O)c1ccc3ccccc3n1)C2` [Example 94, (2-Methyl-3-phenyl-2,4,5,7-tetrahydro-6H-pyrazolo[3,4-c]pyridin-6-yl)(quinolin-2-yl)methanone], half-maximal inhibition (IC50) required 282 nM.
For `Cn1nc2c(c1-c1ccccc1)CCN(C(=O)c1c[nH]c3c(Cl)cccc13)C2` [Example 48, (7-Chloro-1H-indol-3-yl)(2-methyl-3-phenyl-2,4,5,7-tetrahydro-6H-pyrazolo[3,4-c]pyridin-6-yl)methanone], the IC50 worked out at 103 nM.
`CC(C)Oc1cncc(C(=O)N2CCc3c(nn(C)c3-c3cccc(Cl)c3)[C@@H]2C)c1` [Example 122, (S)-(3-(3-Chlorophenyl)-2,7-dimethyl-2,4,5,7-tetrahydro-6H-pyrazolo[3,4-c]pyridin-6-yl)(5-isopropoxypyridin-3-yl)methanone] had a concentration for half-maximal inhibition (IC50) of 78.2 nM.
In turn, `Cn1nc2c(c1-c1ccccc1)CCN(C(=O)c1ncn3ccccc13)C2` [Example 76, Imidazo[1,5-a]pyridin-1-yl(2-methyl-3-phenyl-2,4,5,7-tetrahydro-6H-pyrazolo[3,4-c]pyridin-6-yl)methanone] came in with an IC50 of 6110 nM.
Still for that read-out and setting: the value for `C[C@H]1c2nn(C)c(-c3cc(F)c(F)c(F)c3)c2CCN1C(=O)c1ccc(-c2cn[nH]c2)cc1` [Example 268, [(7S)-2,7-Dimethyl-3-(3,4,5-trifluorophenyl)-5,7-dihydro-4H-pyrazolo[3,4-c]pyridin-6-yl]-[4-(1H-pyrazol-4-yl)phenyl]methanone] was 24.2 nM.
Still for that read-out and setting: with `C[C@H]1c2nn(C)c(-c3cc(F)c(F)c(F)c3)c2CCN1C(=O)c1cc(F)ccc1-n1cncn1` [Example 281, [(7S)-2,7-Dimethyl-3-(3,4,5-trifluorophenyl)-5,7-dihydro-4H-pyrazolo[3,4-c]pyridin-6-yl]-[5-fluoro-2-(1,2,4-triazol-1-yl)phenyl]methanone] the figure was 9.01 nM.
As to `Cc1cccc2cc(C(=O)N3CCc4c(nn(C)c4-c4ccccc4)C3)[nH]c12` [Example 50, (7-Methyl-1H-indol-2-yl)(2-methyl-3-phenyl-2,4,5,7-tetrahydro-6H-pyrazolo[3,4-c]pyridin-6-yl)methanone], the half-inhibitory concentration (IC50) was 2000 nM.
Turning to `C[C@H]1c2nn(C)c(-c3cc(F)c(F)c(F)c3)c2CCN1C(=O)c1ccc(-n2ccnc2)cc1` [Example 267, [(7S)-2,7-Dimethyl-3-(3,4,5-trifluorophenyl)-5,7-dihydro-4H-pyrazolo[3,4-c]pyridin-6-yl]-(4-imidazol-1-ylphenyl)methanone], half-maximal inhibition (IC50) was put at 576 nM.
Still for that read-out and setting: with `Cn1nc2c(c1-c1cc3ccccc3[nH]1)CCN(C(=O)c1ccc3ncccc3c1)C2` [Example 104, (3-(1H-Indol-2-yl)-2-methyl-2,4,5,7-tetrahydro-6H-pyrazolo[3,4-c]pyridin-6-yl)(quinolin-6-yl)methanone] the figure was 791 nM; with `Cn1nc2c(c1-c1ccccc1)CCN(C(=O)c1cccc(OC(F)(F)F)c1F)C2` [Example 4, (2-Fluoro-3-(trifluoromethoxy)phenyl)(2-methyl-3-phenyl-2,4,5,7-tetrahydro-6H-pyrazolo[3,4-c]pyridin-6-yl)methanone], 433 nM; with `C[C@H]1c2nn(C)c(-c3cc(F)c(F)c(F)c3)c2CCN1C(=O)c1cnn(C2CC2)c1` [Example 331, (1-Cyclopropylpyrazol-4-yl)-[(7S)-2,7-dimethyl-3-(3,4,5-trifluorophenyl)-5,7-dihydro-4H-pyrazolo[3,4-c]pyridin-6-yl]methanone], 250 nM.
For `Cn1nc2c(c1-c1ccccc1)CCN(C(=O)c1ncn(-c3ccccc3)n1)C2` [Example 23, (2-Methyl-3-phenyl-2,4,5,7-tetrahydro-6H-pyrazolo[3,4-c]pyridin-6-yl)(1-phenyl-1H-1,2,4-triazol-3-yl)methanone], the IC50 worked out at 847 nM.
The same measure, in the same setting: with `Cn1nc2c(c1-c1ccccc1)CCN(C(=O)c1cccc3cccnc13)C2` [Example 93, (2-Methyl-3-phenyl-2,4,5,7-tetrahydro-6H-pyrazolo[3,4-c]pyridin-6-yl)(quinolin-8-yl)methanone] the figure was 126 nM; with `C[C@H]1c2nn(C)c(-c3cc(Cl)cc(Cl)c3)c2CCN1C(=O)c1ccc2ncccc2c1` [Example 174, (S)-(3-(3,5-Dichlorophenyl)-2,7-dimethyl-2,4,5,7-tetrahydro-6H-pyrazolo[3,4-c]pyridin-6-yl)(quinolin-6-yl)methanone], 2.62 nM; with `COc1cnccc1C(=O)N1CCc2c(nn(C)c2-c2cc(F)c(F)c(F)c2)[C@@H]1C` [Example 311, [(7S)-2,7-Dimethyl-3-(3,4,5-trifluorophenyl)-5,7-dihydro-4H-pyrazolo[3,4-c]pyridin-6-yl]-(3-methoxy-4-pyridyl)methanone], 87.1 nM.
Same read-out and setting: with `COc1cc(C(=O)N2CCc3c(nn(C)c3-c3cc(F)c(F)c(F)c3)[C@@H]2C)cc(-n2cncn2)c1` [Example 278, [(7S)-2,7-Dimethyl-3-(3,4,5-trifluorophenyl)-5,7-dihydro-4H-pyrazolo[3,4-c]pyridin-6-yl]-[3-methoxy-5-(1,2,4-triazol-1-yl)phenyl]methanone] the figure was 3.24 nM.

As usually defined, the IC50 is the concentration that inhibits the measured activity by half. High values mean weaker potency, low ones greater potency.
